According to patent publication US7671211B1, “Substrates for thioredoxin reductase” (priority 1999, dated 2010):
Read-outs that look alike come from different tables or passages of the source.

Tests used:
[1] = molecular target: T1, human thioredoxin reductase (Homo sapiens, UniProt Q16881); test: Reduction of Compound A by human thioredoxin reductase (NADPH oxidation at 340 nm, selenol detection with DTNB); type: biochemical
T1 construct: Thioredoxin reductase (TrxR) from human placenta were purified to homogeneity; from tissue; host or cells: human placenta
T1 sequence (Q16881 1-499 isoform Q16881-5): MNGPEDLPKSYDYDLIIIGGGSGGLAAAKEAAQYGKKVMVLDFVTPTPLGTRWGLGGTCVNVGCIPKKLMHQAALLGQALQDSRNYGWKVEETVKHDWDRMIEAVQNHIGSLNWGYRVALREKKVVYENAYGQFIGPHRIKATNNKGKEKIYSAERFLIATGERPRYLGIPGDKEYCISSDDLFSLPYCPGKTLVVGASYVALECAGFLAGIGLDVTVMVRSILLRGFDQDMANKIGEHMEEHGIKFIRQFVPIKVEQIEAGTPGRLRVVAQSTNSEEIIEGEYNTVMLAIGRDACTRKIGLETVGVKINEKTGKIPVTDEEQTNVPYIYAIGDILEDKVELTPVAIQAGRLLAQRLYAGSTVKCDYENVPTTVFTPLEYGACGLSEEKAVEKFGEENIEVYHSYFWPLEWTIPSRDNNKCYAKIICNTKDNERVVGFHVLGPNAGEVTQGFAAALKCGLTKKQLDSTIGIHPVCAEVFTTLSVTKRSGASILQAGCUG
Protocol: (§1) Measurements of thioredoxin reductase activity were performed in TF buffer (50 mM Tris-Cl, 1 mM EDTA, pH 7.5) with 100 μM NADPH and a given amount of Compound A. Reactions were carried out with addition of 5 or 10 μl of stock solution of thioredoxin reductase in a final volume of 0.55 ml. Cuvettes used as reference contained the same amount of DMSO as in the samples and also thioredoxin reductase. Absorbance of the control cuvette was automatically subtracted by the spectrophotometer. The reactions were followed at 340 nm.
Compound A absorbs at 340 nm with a 4,000 M^−1cm^−1 molar extinction coefficient, and N-phenyl-2-carboxamidobenzene selenol, the reduction product of selenol by a dithiol, has half the absorption (2000 M^−1cm^−1) at 340 nm. The formation of the compound A-selenol was confirmed by measuring absorption spectra in the presence or absence of excess DTT. In calculations of the formation of compound A-selenol, a molar extinction coefficient of 8,200 M^−1cm^−1 was used since oxidation of NADPH to NADP^+ yields 6,200 M^−1cm^−1.
Compound A 50 μM (●) or 100 μM (□) was dissolved in 0.55 ml of a solution containing 50 mM Tris-Cl, 1 mM EDTA (pH 7.5) and 100 μM NADPH, and mixed with 40 nM human thioredoxin reductase. Absorbance at 340 nm was measured and corrected against the blank value (with the same amounts of enzyme, but without compound A). The same experiments using 50 μm (●) and 100 μM (Δ) Compound A mixed with 17 nM enzyme were performed.
The reaction was fast since with 50 μM Compound A the reaction was complete after 1 min. […] When 6 M guanidine hydrochloride containing DTNB was added to the cuvette at 7 min, an absorbance at 412 nm of 0.400 was measured indicating formation of selenol groups. Compound A itself gave no reaction with DTNB. The reaction with 100 μM compound A was seemingly slower from the decrease in absorbance at 340 nm using 40 nM enzyme.

[2] = molecular target: T2, calf thymus thioredoxin reductase (Bos taurus, UniProt O62768); test: Trx-catalyzed insulin disulfide reduction assay; type: biochemical; settings: for SH-group: 5 μM human Trx, 10 nM calf thymus thioredoxin reductase, 3 min, 20° C.; for Activity: relative to 0 μM = 100
T2 construct: Thioredoxin reductase (TrxR) from calf thymus or human placenta were purified to homogeneity; from tissue; host or cells: calf thymus
T2 sequence (O62768 1-499): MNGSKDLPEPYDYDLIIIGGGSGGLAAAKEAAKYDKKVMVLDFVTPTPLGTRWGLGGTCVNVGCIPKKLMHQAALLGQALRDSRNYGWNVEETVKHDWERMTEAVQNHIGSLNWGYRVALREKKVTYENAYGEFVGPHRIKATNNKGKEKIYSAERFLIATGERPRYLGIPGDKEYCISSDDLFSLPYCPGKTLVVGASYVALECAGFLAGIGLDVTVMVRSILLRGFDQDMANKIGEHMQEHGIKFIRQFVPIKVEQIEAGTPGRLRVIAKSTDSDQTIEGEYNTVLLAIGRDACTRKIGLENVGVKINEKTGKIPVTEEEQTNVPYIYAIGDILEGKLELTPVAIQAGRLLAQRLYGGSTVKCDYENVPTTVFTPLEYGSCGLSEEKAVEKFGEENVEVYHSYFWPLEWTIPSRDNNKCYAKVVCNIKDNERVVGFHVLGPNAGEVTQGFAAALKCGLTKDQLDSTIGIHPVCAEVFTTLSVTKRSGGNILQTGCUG
Protocol: (§2) The activity of thioredoxin reductase was determined in the insulin assay. A mixture of 100 mM potassium phosphate (pH 7.0), 2 mM NADPH, and 0.16 mM insulin was added with Compound A and thioredoxin, and then with thioredoxin reductase in a total volume of 0.55 ml for the reaction. The progress of reduction of insulin disulfides was followed at 340 nm. Generated sulfhydryl or selenol groups were measured at 412 nm by addition of 0.50 ml of a mixture of 6 M guanidine-HCl, 0.20 M Tris-Cl (pH 8.0), 1 mM DTNB and calculated using a molar extinction coefficient of 13,600 M^−1cm^−1. DTNB reducing activity of thioredoxin reductase by using NADPH was measured at 412 nm in 100 mM potassium phosphate (pH 7.0) containing 10 mM EDTA, 0.2 mM NADPH, 5 mM DTNB and 0.1 mg per ml of bovine serum albumin.
(§3) To test whether or not Compound A inhibited thioredoxin reductase, enzyme assays were performed.
(§4) Then 0.5 ml of a mixture containing 6 M guranidine HCl, 0.20 M Tris-HCl (pH 8.0) and 1 mM DTNB was added to stop the reaction and the absorbance at 412 nm was used to calculate the amount of SH-groups generated in insulin. In (B), 10 nM calf thymus thioredoxin reductase was preincubated with or without 50 μM compound A and 100 μM NADPH for 1 h. Then 10 μl of the resulting solution was added to 500 μl of a mixture of 0.1 M Tris-HCl (pH 8.0), 1 mM EDTA and 5 mM DTNB to determine activity at 412 nm. Activity is expressed as the amount of SH-groups generated (μM) after 3 min.

[3] = molecular target: T2, calf thymus thioredoxin reductase; test: Reduction of DTNB by thioredoxin reductase; type: biochemical
Protocol: as §2, §3, §4

E.coli Trx-(SH)2 = E.coli Trx-(SH)2 (Escherichia coli, UniProt P0AA25); test: Oxidation of E.coli Trx-(SH)2 by compound A determined by fluorescence spectroscopy; type: biochemical; settings: 0.1 μM Trx-(SH)2 mixed with 0.1 μM compound A, pH 7.5, 22° C.
Protocol: Protein fluorescence was measured with a thermostated SPEX-Fluoro Max instrument. Trx-(SH)2 was prepared from E.coli Trx-S2 640 μM which was incubated at room temperature for 20 min with 10 mM DTT. DTT was subsequently removed by gel chromatography (on a NAP-5 column (Pharmacia) using N2 equilibrated buffer). Trx-(SH)2 was mixed with Compound A dissolved in a total volume of 3 ml of a mixture (pH 7.5) of 0.1 M potassium phosphate and 1 mM EDTA, and fluorescence was immediately measured in the spectrofluorimeter at 22° C. Excitation of fluorescence was at 290 nm and emission spectra from 300 to 500 nm were recorded. Fluorescence at 340 nm was used to follow the oxidation of Trx-(SH)2 to record the rate of the reaction.
Mammalian and E.coli Trx have the same active site GPC and reactivity with disulfides. […] N2 equilibrated 0.1 M potassium phosphate was added with 0.1 μM (1.2 μg/ml) of E.coli Trx-(SH)2 and then with 1 mM EDTA (pH 7.5) to prepare a sample. Fluorescence of the sample was excited at 290 nm. The […] at the wavelength range from 300 to 500 nm was recorded. Then 0.1 μM of compound A was added and a spectrum was recorded. […] This is the fastest reaction for oxidation of reduced thioedoxin by a low molecular weight compound.

[4] = molecular target: T1, human thioredoxin reductase; test: Reduction of hydrogen peroxide by human thioredoxin reductase (hydrogen peroxide reductase activity); type: biochemical; settings: for effect on reaction rate of hydrogen peroxide reduction: 4.5 μM Trx; for turnover of enzyme (hydrogen peroxide reduction) / fold increase of hydrogen peroxide reductase activity: 0.5 mM hydrogen peroxide, 17 nM human TrxR; for fold increase of hydrogen peroxide reductase activity: versus enzyme alone
Protocol: as §1
[…] The absorbance at 340 nm was determined against a blank with 17 nM thioredoxin reductase but without hydrogen peroxide. As a result, with 0.50 mM hydroperoxide a turnover number of 30×min^−1 was calculated. Addition of 2 μM compound A stimulated the activity with the enzyme which increased its activity to a turnover of 450×min^−1 or 15-fold. […] Thus, Compound A acts to dramatically increase the hydrogen peroxide reductase activity of thioredoxin reductase and also acts as a thioredoxin peroxidase mimic.
Addition of 4.5 μM thioredoxin to 17 nM thioredoxin reductase stimulated the reduction of hydrogen peroxide. […] The same conditions as in FIG. 5 were applied with only 17 nM thioredoxin reductase (●) and addition of 4.5 μM Trx (Δ). Then […] was added to adjust the final compound A concentration to […].
Thus compound A increased activity of the enzyme with lower more physiologically relevant concentrations, and this increase was about 25-fold. […] Activity is expressed as the variation ratio per min, ΔA340/min. […]

[5] = molecular target: T1, human thioredoxin reductase; test: as above; type: biochemical; settings: hydrogen peroxide 2 mM, TrxR 17 nM, human Trx 5 μM
[6] = molecular target: T1, human thioredoxin reductase; settings: human Trx-S2, comparison value, cited from earlier work
[7] = 2 μM compound A plus 4.5 μM human Trx

Chain of E.coli Trx-(SH)2 (P0AA25 whole entry): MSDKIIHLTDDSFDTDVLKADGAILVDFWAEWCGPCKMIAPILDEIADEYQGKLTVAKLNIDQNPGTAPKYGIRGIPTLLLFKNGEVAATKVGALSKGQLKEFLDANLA

## O=c1c2ccccc2[se]n1-c1ccccc1 [Compound A, 2-phenyl-1,2-benzisoselenazol-3(2H)-one]
[1]; 15 nM enzyme, 5, 10 and 20 μM compound A
  Kcal: 1000 ± 300 min⁻¹
[1]; 15 nM enzyme, 5, 10 and 20 μM compound A, read-out: Km-value as substrate for thioredoxin reductase
  Km: < 5 µM
[1]; 50 μM Compound A, 40 nM human thioredoxin reductase, 100 μM NADPH
  time until reaction complete: 1 min
[1]; 6 M guanidine hydrochloride containing DTNB added at 7 min, 50 μM Compound A, 40 nM enzyme
  absorbance at 412 nm after DTNB addition (formation of selenol groups): 0.400
[2]
  effect in insulin disulfide reduction assay using thioredoxin and thioredoxin reductase: only a small effect
[2]; 5 μM Compound A
  SH-group: 70.6 µM
  Activity: 89%
[2]; 10 μM Compound A
  SH-group: 68.4 µM
  Activity: 88%
[3]; 50 μM Compound A and 10 nM enzyme
  inhibition of thioredoxin reductase with DTNB as substrate: No inhibition
[3]; 50 μM Compound A preincubated with 10 nM enzyme and 100 μM NADPH for 1 h, after 3 min
  SH-group: 7.5 µM
[3]; 50 μM Compound A, preincubation 1 h, relative to 0 μM = 100
  Activity: 103%
[3]; preincubation in the presence or absence of NADPH
  inhibition of the enzyme after preincubation with compound A: did not inhibit
E.coli Trx-(SH)2
  oxidation rate of Trx-(SH)2: > 2e+07 M⁻¹ s⁻¹
[4]; 0.5 μM compound A, 17 nM thioredoxin reductase
  effect on reaction rate of hydrogen peroxide reduction: increased the reaction rate
[4]; 5.5 μM compound A, 17 nM thioredoxin reductase
  effect on reaction rate of hydrogen peroxide reduction: stimulated strongly
[4]; 100 μM hydrogen peroxide, 17 nM thioredoxin reductase, 2 μM Compound A
  fold increase of enzyme activity at low hydrogen peroxide concentration: about 25 fold
[4]; 2 μM compound A
  turnover of enzyme (hydrogen peroxide reduction): 450 min⁻¹
  fold increase of hydrogen peroxide reductase activity: 15 fold
[4]; [7]
  turnover of enzyme (hydrogen peroxide reduction): 900 min⁻¹
  fold increase of hydrogen peroxide reductase activity: 30 fold
[5]
  turnover of Compound A: 23 min⁻¹
[5]; compound A
  enzyme turnover: 1328 min⁻¹
[5]; same rate with 1, 2 and 5 μM compound A
  NADPH oxidation rate: 23 µM/min

B1: human Trx-S2: oxidized human thioredoxin, protein substrate of thioredoxin reductase, used for comparison of Km and Kcal (protein, UniProt P10599 2-105, looked up)
Thioredoxin: VKQIESKTAFQEALDAAGDKLVVVDFSATWCGPCKMIKPFFHSLSEKYSNVIFLEVDVDDCQDVASECEVKCMPTFQFFKKGQKVGEFSGANKEKLEATINELV
modifications: oxidized
notes: oxidized human thioredoxin, protein substrate of thioredoxin reductase, used for comparison of Km and Kcal
[6]
  Kcal: 3000 min⁻¹
[6]; read-out: Km-value as substrate for thioredoxin reductase
  Km: 2.5 µM
